Earlier results as cited in US20140107223A1, “TOPICAL UBIQUINOL SUPPLEMENT SKIN CARE COMPOSITIONS” (WHITEHILL ORAL TECHNOLOGIES, INC., priority 2012, published 2014).

Tests used:
CRP concentrations = settings: dietary supplementation, healthy baboons
[1] = topical once weekly via syringe for six weeks, combined with mechanical debridement
[2] = 150 mg capsule/day for two months
[3] = system: human monocytic cellline THP-1; settings: LPS-stimulated THP-1
[4] = not given; remark: listed apart in the source

Row | Compound | baseline inflammatory status indicated by CRP concentrations (CRP concentrations) | bleeding on probing [1] | effect on oral environment for periodontal disease [2] | effect on inflammatory cytokines and chemokines in vitro [3] | water solubility | bioavailability versus ubiquinone ([4]; oral) | time to steady-state concentrations ([4]; oral administration) | time required to reach peak concentration ([4]; oral administration, absorption from the gastrointestinal tract) | peak blood values ([4]; oral, 150 mg per day in a softgel, within 28 days) [µg/mL]
1 | COC1=C(OC)C(=O)C(C/C=C(\C)CC/C=C(\C)CC/C=C(\C)CC/C=C(\C)CC/C=C(\C)CC/C=C(\C)CC/C=C(\C)CC/C=C(\C)CC/C=C(\C)CCC=C(C)C)=C(C)C1=O [CoQ10, coenzyme Q10] | significantly enhances this anti-inflammatory effect | no bleeding at six weeks | – | – | – | – | – | – | –
2 | COc1c(O)c(C)c(C/C=C(\C)CC/C=C(\C)CC/C=C(\C)CC/C=C(\C)CC/C=C(\C)CC/C=C(\C)CC/C=C(\C)CC/C=C(\C)CC/C=C(\C)CCC=C(C)C)c(O)c1OC [UBIQUINOL] | – | – | is effective in improving oral environment for periodontal disease | anti-inflammatory effects | less than 0.1 mg/ml | greater bioavailability than ubiquinone | two | approximately 6 hours | 3.84
3 | Vitamin E | reduces baseline inflammatory status | – | – | – | – | – | – | – | –
